# PubChem BioAssay (NCI)
#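 Test compounds were applied to cells in 96-well plates for 48 hours at 5 doses. At the TGI there is no net growth.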
# Assays:
# Experiment in all cases: NCI anticancer screen, dose series, 48 h
# NCI-H460 lung = test system: NCI-H460 lung
# HT29 colon = test system: HT29 colon
# NCI-H23 lung = test system: NCI-H23 lung
# MCF7 breast = test system: MCF7 breast
# A549 NSCLC = test system: A549 NSCLC
# UO-31 renal = test system: UO-31 renal
# MDA-N = test system: MDA-N
# K-562 leukemia = test system: K-562 leukemia
# M14 melanoma = test system: M14 melanoma
# ACHN renal = test system: ACHN renal
# COLO 205 colon = test system: COLO 205 colon
# HS 578T breast = test system: HS 578T breast
# CCRF-CEM leukemia = test system: CCRF-CEM leukemia
# CAKI-1 renal = test system: CAKI-1 renal
# SK-MEL-28 melanoma = test system: SK-MEL-28 melanoma
# NCI-H226 lung = test system: NCI-H226 lung
# RXF 393 renal = test system: RXF 393 renal
# SK-OV-3 ovarian = test system: SK-OV-3 ovarian
# HOP-92 NSCLC = test system: HOP-92 NSCLC
# LOX IMVI melanoma = test system: LOX IMVI melanoma
# HOP-62 NSCLC = test system: HOP-62 NSCLC
# HCT-116 colon = test system: HCT-116 colon
# SN12C renal = test system: SN12C renal
# HCC-2998 colon = test system: HCC-2998 colon
# DU-145 prostate = test system: DU-145 prostate
# SW-620 colon = test system: SW-620 colon
# EKVX NSCLC = test system: EKVX NSCLC
# 786-0 renal = test system: 786-0 renal
# HL-60(TB) leukemia = test system: HL-60(TB) leukemia
# SNB-19 CNS = test system: SNB-19 CNS
# T-47D breast = test system: T-47D breast
# KM12 colon = test system: KM12 colon
# A498 renal = test system: A498 renal
# BT-549 breast = test system: BT-549 breast
# MALME-3M melanoma = test system: MALME-3M melanoma
# SK-MEL-5 melanoma = test system: SK-MEL-5 melanoma
# MOLT-4 leukemia = test system: MOLT-4 leukemia
# SK-MEL-2 melanoma = test system: SK-MEL-2 melanoma
# OVCAR-4 ovarian = test system: OVCAR-4 ovarian
# MDA-MB-435 = test system: MDA-MB-435
# TK-10 renal = test system: TK-10 renal
# SF-295 CNS = test system: SF-295 CNS
# MDA-MB-231 breast = test system: MDA-MB-231 breast
# U251 CNS = test system: U251 CNS
# OVCAR-8 ovarian = test system: OVCAR-8 ovarian
# SF-539 CNS = test system: SF-539 CNS
# SNB-75 CNS = test system: SNB-75 CNS
# SF-268 CNS = test system: SF-268 CNS
# HCT-15 colon = test system: HCT-15 colon
# NCI/ADR-RES ovarian = test system: NCI/ADR-RES ovarian
# UACC-257 melanoma = test system: UACC-257 melanoma
# UACC-62 melanoma = test system: UACC-62 melanoma
# OVCAR-5 ovarian = test system: OVCAR-5 ovarian
# IGROV1 ovarian = test system: IGROV1 ovarian
# SR leukemia = test system: SR leukemia
# OVCAR-3 ovarian = test system: OVCAR-3 ovarian
# NCI-H522 lung = test system: NCI-H522 lung
# RPMI-8226 leukemia = test system: RPMI-8226 leukemia
# PC-3 prostate = test system: PC-3 prostate
# HOP-18 NSCLC = test system: HOP-18 NSCLC
# SNB-78 CNS = test system: SNB-78 CNS
# KM20L2 colon = test system: KM20L2 colon
# M19-MEL melanoma = test system: M19-MEL melanoma
# LXFL 529 NSCLC = test system: LXFL 529 NSCLC
# DLD-1 colon = test system: DLD-1 colon
smiles,measurement,setting,value
O=[N+]([O-])C(/C(Cl)=C(\Cl)Br)=C(/Cl)SCc1ccccc1,TGI,NCI-H460 lung,30.5 µM
same,TGI,HT29 colon,5.54 µM
same,TGI,NCI-H23 lung,14.9 µM
same,TGI,MCF7 breast,11.2 µM
same,TGI,A549 NSCLC,33.5 µM
same,TGI,UO-31 renal,5.73 µM
same,TGI,MDA-N,4.09 µM
same,TGI,K-562 leukemia,4.12 µM
same,TGI,M14 melanoma,9.15 µM
same,TGI,ACHN renal,8.64 µM
same,TGI,COLO 205 colon,4.86 µM
same,TGI,HS 578T breast,50.7 µM
same,TGI,CCRF-CEM leukemia,6.25 µM
same,TGI,CAKI-1 renal,3.78 µM
same,TGI,SK-MEL-28 melanoma,5.98 µM
same,TGI,NCI-H226 lung,36.7 µM
same,TGI,RXF 393 renal,4.85 µM
same,TGI,SK-OV-3 ovarian,33.7 µM
same,TGI,HOP-92 NSCLC,5.34 µM
same,TGI,LOX IMVI melanoma,3.95 µM
same,TGI,HOP-62 NSCLC,37.5 µM
same,TGI,HCT-116 colon,7.11 µM
same,TGI,SN12C renal,11.3 µM
same,TGI,HCC-2998 colon,25.1 µM
same,TGI,DU-145 prostate,25.7 µM
same,TGI,SW-620 colon,4.61 µM
same,TGI,EKVX NSCLC,14.5 µM
same,TGI,786-0 renal,4.06 µM
same,TGI,HL-60(TB) leukemia,2.18 µM
same,TGI,SNB-19 CNS,38.8 µM
same,TGI,T-47D breast,10.9 µM
same,TGI,KM12 colon,30 µM
same,TGI,A498 renal,21.2 µM
same,TGI,BT-549 breast,7.38 µM
same,TGI,MALME-3M melanoma,18.7 µM
same,TGI,SK-MEL-5 melanoma,15 µM
same,TGI,MOLT-4 leukemia,3.35 µM
same,TGI,SK-MEL-2 melanoma,18.1 µM
same,TGI,OVCAR-4 ovarian,11.4 µM
same,TGI,MDA-MB-435,3.79 µM
same,TGI,TK-10 renal,10.8 µM
same,TGI,SF-295 CNS,35.9 µM
same,TGI,MDA-MB-231 breast,7.96 µM
same,TGI,U251 CNS,18.5 µM
same,TGI,OVCAR-8 ovarian,8.13 µM
same,TGI,SF-539 CNS,25.5 µM
same,TGI,SNB-75 CNS,13.5 µM
same,TGI,SF-268 CNS,9.76 µM
same,TGI,HCT-15 colon,8.53 µM
same,TGI,NCI/ADR-RES ovarian,8.62 µM
same,TGI,UACC-257 melanoma,22.1 µM
same,TGI,UACC-62 melanoma,16.5 µM
same,TGI,OVCAR-5 ovarian,26.2 µM
same,TGI,IGROV1 ovarian,13.1 µM
same,TGI,SR leukemia,13.4 µM
same,TGI,OVCAR-3 ovarian,8.83 µM
same,TGI,NCI-H522 lung,4.79 µM
same,TGI,RPMI-8226 leukemia,5.42 µM
same,TGI,PC-3 prostate,14.3 µM
CC1(C)COC2C(N(Cc3ccccc3)Cc3ccccc3)C(=O)N21 (stereo not drawn),TGI,NCI-H460 lung,> 100 µM
same,TGI,HT29 colon,> 100 µM
same,TGI,NCI-H23 lung,> 100 µM
same,TGI,A549 NSCLC,> 100 µM
same,TGI,HOP-18 NSCLC,> 100 µM
same,TGI,SNB-78 CNS,> 100 µM
same,TGI,UO-31 renal,> 100 µM
same,TGI,K-562 leukemia,82.9 µM
same,TGI,M14 melanoma,56.2 µM
same,TGI,ACHN renal,> 100 µM
same,TGI,COLO 205 colon,61.8 µM
same,TGI,KM20L2 colon,> 100 µM
same,TGI,CCRF-CEM leukemia,> 100 µM
same,TGI,CAKI-1 renal,> 100 µM
same,TGI,SK-MEL-28 melanoma,> 100 µM
same,TGI,NCI-H226 lung,> 100 µM
same,TGI,RXF 393 renal,42.5 µM
same,TGI,SK-OV-3 ovarian,66.1 µM
same,TGI,HOP-92 NSCLC,80.5 µM
same,TGI,LOX IMVI melanoma,> 100 µM
same,TGI,HOP-62 NSCLC,> 100 µM
same,TGI,HCT-116 colon,> 100 µM
same,TGI,SN12C renal,> 100 µM
same,TGI,HCC-2998 colon,> 100 µM
same,TGI,SW-620 colon,> 100 µM
same,TGI,EKVX NSCLC,> 100 µM
same,TGI,M19-MEL melanoma,> 100 µM
same,TGI,786-0 renal,> 100 µM
same,TGI,HL-60(TB) leukemia,62.9 µM
same,TGI,SNB-19 CNS,71.8 µM
same,TGI,KM12 colon,> 100 µM
same,TGI,A498 renal,> 100 µM
same,TGI,MALME-3M melanoma,> 100 µM
same,TGI,SK-MEL-5 melanoma,> 100 µM
same,TGI,MOLT-4 leukemia,> 100 µM
same,TGI,OVCAR-4 ovarian,> 100 µM
same,TGI,TK-10 renal,> 100 µM
same,TGI,SF-295 CNS,88.8 µM
same,TGI,U251 CNS,70.8 µM
same,TGI,OVCAR-8 ovarian,> 100 µM
same,TGI,SF-539 CNS,69.8 µM
same,TGI,LXFL 529 NSCLC,> 100 µM
same,TGI,SNB-75 CNS,41.2 µM
same,TGI,SF-268 CNS,82.1 µM
same,TGI,HCT-15 colon,> 100 µM
same,TGI,UACC-257 melanoma,> 100 µM
same,TGI,UACC-62 melanoma,61 µM
same,TGI,OVCAR-5 ovarian,> 100 µM
same,TGI,IGROV1 ovarian,> 100 µM
same,TGI,DLD-1 colon,> 100 µM
same,TGI,SR leukemia,54.7 µM
same,TGI,OVCAR-3 ovarian,> 100 µM
same,TGI,NCI-H522 lung,45.6 µM
same,TGI,RPMI-8226 leukemia,91.3 µM
